The text below walks through data of patent US4001218A, “Penicillins” (Bayer Aktiengesellschaft, priority 1972, dated 1977).

For experiment [1], the system named is Klebsiella K 10. As to the kind of experiment: MIC, test tube series dilution test, Klebsiella K 10. Type of experiment: cell-based. The conditions noted are these: 24 hours, 37°C.
Experiment [2] has as its system Enterococcus 9790. As to the kind of experiment: MIC, test tube series dilution test, Enterococcus 9790. The class given is cell-based. The conditions noted are these: 24 hours, 37°C.
Experiment [3] has as its system Psdm. aerug. F 41. As to the kind of experiment: MIC, test tube series dilution test, Psdm. aerug. F 41. The conditions noted are these: Psdm. aerug. F 41; 24 hours, 37°C. The class given is cell-based, Pseudomonas aeruginosa.
For experiment [4], the system named is Proteus morg. 932. Briefly: MIC, test tube series dilution test, Proteus morg. 932. The class given is cell-based. The conditions noted are these: 24 hours, 37°C.
Experiment [5] has as its system Staph. aureus 133. Type of experiment: cell-based, Staphylococcus aureus. The conditions noted are these: Staph. aureus 133; 24 hours, 37°C.
Experiment [6] has as its system Psdm. aerug. Walter. Briefly: MIC, test tube series dilution test, Psdm. aerug. Walter. The class given is cell-based, Pseudomonas aeruginosa. The conditions noted are these: Psdm. aerug. Walter; 24 hours, 37°C.
Experiment [7] relates to E. coli A 261. As to the kind of experiment: MIC, test tube series dilution test, E. coli A 261. The class given is cell-based. The conditions noted are these: 24 hours, 37°C.
The subject of experiment [8] is Staph. aureus 1756. Briefly: MIC, test tube series dilution test, Staph. aureus 1756. The class given is cell-based, Staphylococcus aureus. The conditions noted are these: Staph. aureus 1756; 24 hours, 37°C.
In experiment [9] the test system is Proteus vulg. 1017. The class given is cell-based, Proteus vulgaris. The conditions noted are these: Proteus 1017; 24 hours, 37°C.
Experiment [10] deals with E. coli 14. Type of experiment: cell-based. The conditions noted are these: E. coli 14; 24 hours, 37°C.
In experiment [11] the test system is E. coli 183/58. Briefly: MIC, test tube series dilution test, E. coli 183/58. The class given is cell-based. The conditions noted are these: 24 hours, 37°C.
Experiment [12] deals with Klebsiella 63. As to the kind of experiment: MIC, test tube series dilution test, Klebsiella 63. Type of experiment: cell-based. The conditions noted are these: Klebsiella 63; 24 hours, 37°C.
The subject of experiment [13] is E. coli C 165. As to the kind of experiment: MIC, test tube series dilution test, E. coli C 165. The class given is cell-based. The conditions noted are these: 24 hours, 37°C.

`CC1(C)S[C@@H]2[C@H](NC(=O)[C@H](NC(=O)c3ccc(NC(=O)C4CC=CCC4)cc3)c3ccccc3)C(=O)N2[C@H]1C(=O)O` (single isomer, unassigned) [Example 12, sodium D(-)-α-[4-(3-cyclohexene-1-carbonylamino-benzoylamino)]-benzylpenicillin]: the MIC was 32 U/ml in experiment [1]; ~ 8 U/ml in [2]; 32 U/ml in [3]; more than 256 U/ml in [4]; less than 1 U/ml in experiment [5]; 32 U/ml in experiment [6]. For the same compound, the MIC in experiment [7] was more than 256 U/ml; in experiment [8] it was 16 U/ml; in experiment [9], 16 U/ml; in experiment [10] it was ~ 4 U/ml; in [11] it was 16 U/ml; in experiment [12], 32 U/ml. This compound also showed an MIC in [13] of 8 U/ml.
In the case of `CC1(C)S[C@@H]2[C@H](NC(=O)[C@H](N)c3ccccc3)C(=O)N2[C@H]1C(=O)O` [Ampicillin, D(-)-α-aminobenzylpenicillin, reference compound], the MIC in experiment [1] was 128 U/ml; in experiment [2], 4 U/ml; in [3], more than 256 U/ml; in experiment [4], 256 U/ml; in experiment [5] it was less than 1 U/ml; in [6], more than 256 U/ml. Also, the MIC in experiment [7] was 8 U/ml; in [8], 256 U/ml; in [9] it was 256 U/ml; in experiment [10], more than 1 U/ml; in [11], 200 U/ml; in [12], 128 U/ml. Moreover, the MIC in experiment [13] amounted to 8 U/ml.
Regarding `CC1(C)S[C@@H]2[C@H](NC(=O)[C@H](NC(=O)c3ccc(NC(=O)C4CCC4)cc3)c3ccccc3)C(=O)N2[C@H]1C(=O)O` [Example 5, sodium D(-)-α-(4-cyclobutanecarbonylaminobenzoylamino)-benzylpenicillin], the MIC is 128 U/ml in [1]; 16 U/ml in experiment [2]; 64 U/ml in [3]; 256 U/ml in [4]; less than 1 U/ml in experiment [5]; 64 U/ml in experiment [6]. Further, the MIC in experiment [7] is given as more than 256 U/ml; in [8], 32 U/ml; in experiment [9] it was 32 U/ml; in experiment [10], 8 U/ml; in [11], 32 U/ml; in experiment [12], 64 U/ml. Moreover, the MIC in experiment [13] was 16 U/ml.
In the case of `CC1(C)S[C@@H]2[C@H](NC(=O)[C@H](NC(=O)c3ccc(NC(=O)CC4C=CCC4)cc3)c3ccccc3)C(=O)N2[C@H]1C(=O)[O-].[Na+]` (stereo partly drawn) [Example 8, sodium D(-)-α-(4-[2-cyclopentene-1-acetamido-benzoylamino])-benzylpenicillin], the MIC in [1] is 64 U/ml; in experiment [2], 8 U/ml; in [3], 64 U/ml; in experiment [4], 128 U/ml; in experiment [5] it was less than 1 U/ml; in experiment [6], 64 U/ml. Also, the MIC in experiment [7] is more than 256 U/ml; in [8], 8 U/ml; in experiment [9] it was 64 U/ml; in [11], 16 U/ml; in experiment [12] it was 32 U/ml; in experiment [13], 8 U/ml.
For the compound `CC1(C)S[C@@H]2[C@H](NC(=O)[C@H](NC(=O)c3ccc(NC(=O)C4=CCCCC4)cc3)c3ccccc3)C(=O)N2[C@H]1C(=O)O` [Example 11, sodium D(-)-α-[4-(1-cyclohexene-1-carbonylamino-benzoylamino)]-benzylpenicillin], the MIC is given as 64 U/ml in [1]; 16 U/ml in [2]; 32 U/ml in [3]; 128 U/ml in experiment [4]; less than 1 U/ml in experiment [5]; 32 U/ml in experiment [6]. Besides, the MIC in [7] is recorded as more than 256 U/ml; in [8] it was 128 U/ml; in experiment [9], 64 U/ml; in [10] it was 4 U/ml; in experiment [11], 8 U/ml; in experiment [12], 32 U/ml. In addition, in experiment [13], the MIC turned out to be 8 U/ml.
For `CC1(C)S[C@@H]2[C@H](NC(=O)[C@H](NC(=O)c3ccc(NC(=O)C4CCC=CCC4)cc3)c3ccccc3)C(=O)N2[C@H]1C(=O)O` [Example 14, sodium D(-)-α-[4-(4-cycloheptene-1-carbonylamino-benzoylamino)]-benzylpenicillin], the MIC in experiment [1] is on record as 32 U/ml; in [2], 8 U/ml; in experiment [3], 32 U/ml; in [4], 256 U/ml; in [5], less than 1 U/ml; in [6], 32 U/ml. The MIC is more than 256 U/ml in experiment [7]; 32 U/ml in experiment [8]; 16 U/ml in experiment [9]; less than 1 U/ml in experiment [10]; 16 U/ml in experiment [11]; 32 U/ml in [12]. Also, the MIC in [13] was ~ 8 U/ml.
`COc1ccc(C(=O)Nc2ccc(C(=O)N[C@@H](C(=O)N[C@@H]3C(=O)N4[C@@H]3SC(C)(C)[C@@H]4C(=O)O)c3ccccc3)cc2)cc1` [Example 16]: the MIC in experiment [1] is recorded as 32 U/ml; in [2], 8 U/ml; in experiment [3], 16 U/ml; in experiment [4] it was 256 U/ml; in experiment [5] it was less than 1 U/ml; in [6] it was 16 U/ml. The MIC in experiment [7] is reported as more than 256 U/ml; in experiment [8], 64 U/ml; in experiment [9] it was 64 U/ml; in experiment [10], ~ 1 U/ml; in experiment [11] it was 8 U/ml; in experiment [12], 16 U/ml. This compound displayed an MIC in [13] of 8 U/ml.
Turning to `CC1(C)S[C@@H]2[C@H](NC(=O)[C@H](NC(=O)c3ccc(NC(=O)c4ccc(F)cc4)cc3)c3ccccc3)C(=O)N2[C@H]1C(=O)O` [Example 17], the MIC in experiment [1] is reported as 64 U/ml; in [2] it was 16 U/ml; in experiment [3], 32 U/ml; in [4], 128 U/ml; in experiment [5], less than 1 U/ml; in [6] it was 32 U/ml. For the same compound, the MIC is listed as more than 256 U/ml in experiment [7]; 32 U/ml in [8]; ~ 32 U/ml in [9]; 4 U/ml in experiment [10]; 8 U/ml in [11]; 32 U/ml in [12]. Further, the MIC in experiment [13] is recorded as ~ 8 U/ml.
Turning to `COc1cc(OC)cc(C(=O)Nc2ccc(C(=O)N[C@@H](C(=O)N[C@@H]3C(=O)N4[C@@H]3SC(C)(C)[C@@H]4C(=O)O)c3ccccc3)cc2)c1` [Example 18], the MIC is 64 U/ml in [1]; 8 U/ml in experiment [2]; 16 U/ml in [3]; 128 U/ml in [4]; less than 1 U/ml in experiment [5]; 16 U/ml in experiment [6]. The MIC in experiment [7] was more than 256 U/ml; in experiment [8] it was 16 U/ml; in experiment [9], 64 U/ml; in [10], 4 U/ml; in [11] it was 8 U/ml; in [12] it was 64 U/ml. In experiment [13], this compound showed an MIC of 8 U/ml.
In the case of `CC1(C)S[C@@H]2[C@H](NC(=O)[C@H](NC(=O)c3ccc([N+](=O)[O-])cc3)c3ccccc3)C(=O)N2[C@H]1C(=O)O` [Example 33, sodium D(-)-α-(4-nitro-benzoylamino)-benzylpenicillin], the MIC is on record as 128 U/ml in experiment [1]; 4 U/ml in experiment [2]; 64 U/ml in experiment [3]; 256 U/ml in experiment [4]; less than 1 U/ml in experiment [5]; more than 256 U/ml in experiment [7]. Further, the MIC in experiment [8] is 32 U/ml; in [9], 64 U/ml; in experiment [10], ~ 8 U/ml; in experiment [11], 32 U/ml; in experiment [12], 128 U/ml; in experiment [13], ~ 32 U/ml.
With `CC1(C)S[C@@H]2[C@H](NC(=O)[C@H](NC(=O)c3ccc(NC(=O)CN=[N+]=[N-])cc3)c3ccccc3)C(=O)N2[C@H]1C(=O)O` [Example 36], the MIC in experiment [1] was 128 U/ml; in [2], 8 U/ml; in experiment [3] it was 32 U/ml; in [5] it was less than 1 U/ml; in experiment [6], ~ 64 U/ml; in experiment [7], more than 256 U/ml. Also, the MIC in experiment [8] is listed as 64 U/ml; in experiment [9] it was 128 U/ml; in experiment [10], 8 U/ml; in experiment [11], 32 U/ml; in experiment [12], 64 U/ml; in [13], ~ 16 U/ml.
On to `CC1(C)S[C@@H]2[C@H](NC(=O)[C@H](NC(=O)c3cc(NC(=O)C4CCC4)ccc3Cl)c3ccccc3)C(=O)N2[C@H]1C(=O)O` [Example 52], for which the MIC in [1] is recorded as 128-256 U/ml; in experiment [2] it was 32-64 U/ml; in experiment [3], 128-256 U/ml; in experiment [5] it was less than 1 U/ml; in [6], 128-256 U/ml; in [8], 32-64 U/ml. For the same compound, the MIC in experiment [9] is more than 256 U/ml; in experiment [11], 32-64 U/ml; in experiment [12], 128-256 U/ml; in experiment [13], 128-256 U/ml.
